Consider 23 compounds from patent publication US7563791B2, “Pyrrolotriazine derivatives useful for treating hyper-proliferative disorders and diseases associated with angiogenesis” (Bayer Pharmaceuticals Corporation, priority 2004, dated 2009).

This experiment concerns VEGF stimulated Phospho-ERK in HUVEC. Description: Growth factor stimulated p-ERK assay in HUVECs (VEGF stimulation, ERK1/2 Bioplex). Format: cell-based. The note with it: Homo sapiens, compound 2 hrs, then 50 ng/ml VEGF 10 min; for inhibition at 0.1 µM: @ 100 nM. How it is done: Growth Factor Stimulated p-ERK assay in HUVECs
Exponentially growing human endothelial HUVECs cells (human umbilical vein endothelial cells, cat# CC-2517, Cambrex, Walkersville, Md.) were seeded at twenty five thousand cells/well in 96 well plates in EBM-2 MV medium with growth factors (cat# CC-3202, Cambrex) and grown at 37° C. in 5% CO2. Sixteen hours post-plating, the cells were changed to serum-free medium (RPMI 1640 containing 0.1% BSA (bovine serum albumin) and compounds were added at different concentrations for 2 hrs, after which the cells were stimulated for 10 min with 50 ng/ml of either VEGF (vascular endothelial growth factor, Protein Sciences, Meriden, Conn.) or bFGF (basic fibroblast growth factor cat# PHG0026, Biosource International, Camarillo, Calif.). The rest of the assay was performed per manufacturer indications for the ERK½ Bioplex assay (cat#171-304004, Bio-Rad, Hercules, Calif.). After removing culture medium by aspiration, the cells were quickly rinsed with 100 μl of cell wash buffer A to stop treatment reaction. Eighty microliters of cell lysis buffer were then immediately added to each well of the 96 well plate which was put on ice. Cells in each well were lysed by pipetting up and down 5 times with a multi-channel pipet. The plate was then agitated on a microtiter plate shaker at 300 rpm for 20 min at 4° C. Cellular debris were pelleted by centrifugation at 4500 g for 15 min at 4° C. and the supernatant was collected. Forty five microliters of supernatant was diluted with an equal volume of Bio-Plex phosphoprotein assay Buffer B, The coupled and color coated beads were added into a 96 well filter plate, and the prepared lysates were added. The beads and lysate mixture was incubated at room temperature for 15-18 hrs. The following day, the plate was vacuum-filtered and then washed 3×. Twenty-five microliters of detection antibody solution were added to each well and the plate was then incubated for 30 min at room temperature. The plate was then vaccum-filtered and washed as described previously. Fifty microliters of streptavidin-PE solution was added to each well, the plate was incubated for 10 min at room temperature and then was then vaccum-filtered and washed as described above. One hundred twenty-five microliters of resuspension buffer was added to each well and data were acquired on the Luminex 100 instrument (Bio-Rad).

As usually defined, the inhibition is the drop in the measured response relative to a control, in per cent. Low readings indicate a response near the control, high ones a response far below the control. On to `CCOC(=O)c1cn2ncnc(N)c2c1-c1ccc(NC(=O)Nc2cc(C(F)(F)F)ccc2F)cc1` [Example 1, ethyl 4-amino-5-{4-[({[2-fluoro-5-(trifluoromethyl)phenyl]amino}carbonyl)amino]phenyl}pyrrolo[2,1-f][1,2,4]triazine-6-carboxylate], for which the inhibition at 0.1 µM is over 50%.

As to `CCOC(=O)c1cn2ncnc(N)c2c1-c1ccc(NC(=O)Nc2ccccc2OC(F)(F)F)cc1` [Example 8, ethyl 4-amino-5-{4-[({[2-(trifluoromethoxy)phenyl]amino}carbonyl)amino]phenyl}pyrrolo[2,1-f][1,2,4]triazine-6-carboxylate], the inhibition at 0.1 µM was over 50%.

Regarding `CCOC(=O)c1cn2ncnc(N)c2c1-c1ccc(NC(=O)Nc2cccc(OC(F)(F)F)c2)cc1` [Example 9, ethyl 4-amino-5-{4-[({[3-(trifluoromethoxy)phenyl]amino}carbonyl)amino]phenyl}pyrrolo[2,1-f][1,2,4]triazine-6-carboxylate], the inhibition at 0.1 µM is over 50%.

In the case of `CCOC(=O)c1cn2ncnc(N)c2c1-c1ccc(NC(=O)Nc2ccc(OC(F)(F)F)cc2)cc1` [Example 11, ethyl 4-amino-5-{4-[({[4-(trifluoromethoxy)phenyl]amino}carbonyl)amino]phenyl}pyrrolo[2,1-f][1,2,4]triazine-6-carboxylate], the inhibition at 0.1 µM is under 50% and the inhibition at 1 µM is over 50%.

As to `CCOC(=O)c1cn2ncnc(N)c2c1-c1ccc(NC(=O)Nc2ccc3c(cnn3C)c2)cc1` [Example 12], the inhibition at 0.1 µM is over 50%.

In the case of `CCOC(=O)c1cn2ncnc(N)c2c1-c1ccc(NC(=O)Nc2ccc3c(c2)OC(F)(F)O3)cc1` [Example 14, ethyl 4-amino-5-[4-({[(2,2-difluoro-1,3-benzodioxol-5-yl)amino]carbonyl}amino)phenyl]pyrrolo[2,1-f][1,2,4]triazine-6-carboxylate], the inhibition at 0.1 µM is under 50%, the inhibition at 1 µM was under 50% and the inhibition at 10 µM is over 50%.

Take `CCOC(=O)c1cn2ncnc(N)c2c1-c1ccc(NC(=O)Nc2ccc(Cl)c(Cl)c2)cc1` [Example 18, ethyl 4-amino-S-[4-({[(3,4-dichlorophenyl)amino]carbonyl}amino)phenyl]pyrrolo[2,1-f][1,2,4]triazine-6-carboxylate]: the inhibition at 0.1 µM is under 50%, the inhibition at 1 µM is under 50% and the inhibition at 10 µM is over 50%.

On to `CCOC(=O)c1cn2ncnc(N)c2c1-c1ccc(NC(=O)Nc2ccc3c(c2)OC(F)(F)C(F)(F)O3)cc1` [Example 22, ethyl 4-amino-5-[4-({[(2,2,3,3-tetrafluoro-2,3-dihydro-1,4-benzodioxin-6-yl)amino]carbonyl}amino)phenyl]pyrrolo[2,1-f][1,2,4]triazine-6-carboxylate], for which the inhibition at 0.1 µM is under 50% and the inhibition at 1 µM is over 50%.

`CCOC(=O)c1cn2ncnc(N)c2c1-c1ccc(NC(=O)Nc2ccccc2)cc1` [Example 23, ethyl 4-amino-5-{4-[(anilinocarbonyl)amino]phenyl}pyrrolo[2,1-f][1,2,4]triazine-6-carboxylate] returned an inhibition at 0.1 µM of over 50%.

`CCOC(=O)c1cn2ncnc(N)c2c1-c1ccc(NC(=O)Nc2ccccc2C(C)C)cc1` [Example 24, ethyl 4-amino-5-[4-({[(2-isopropylphenyl)amino]carbonyl}amino)phenyl]pyrrolo[2,1-f][1,2,4]triazine-6-carboxylate] returned an inhibition at 0.1 µM of under 50% and an inhibition at 1 µM of over 50%.

For `CCOC(=O)c1cn2ncnc(N)c2c1-c1ccc(NC(=O)Nc2cc(C(F)(F)F)cc(C(F)(F)F)c2)cc1` [Example 26, ethyl 4-amino-5-{4-[({[3,5-bis(trifluoromethyl)phenyl]amino}carbonyl)amino]phenyl}pyrrolo[2,1-f][1,2,4]triazine-6-carboxylate], the inhibition at 0.1 µM was under 50% and the inhibition at 1 µM is over 50%.

`CCOC(=O)c1cn2ncnc(N)c2c1-c1ccc(NC(=O)Nc2cc(C(F)(F)F)ccc2N2CCOCC2)cc1` [Example 27, ethyl 4-amino-5-{4-[({[2-morpholin-4-yl-5-(trifluoromethyl)phenyl]amino}carbonyl)amino]phenyl}pyrrolo[2,1-f][1,2,4]triazine-6-carboxylate]: the inhibition at 0.1 µM is over 50%.

The compound `CCOC(=O)c1cn2ncnc(N)c2c1-c1ccc(NC(=O)Nc2cc(OC)ncn2)cc1` [Example 29, ethyl 4-amino-5-[4-({[(6-methoxypyrimidin-4-yl)amino]carbonyl}amino)phenyl]pyrrolo[2,1-f][1,2,4]triazine-6-carboxylate] gave an inhibition at 0.1 µM of under 50% and an inhibition at 1 µM of over 50%.

Compound `COCCNCc1cn2ncnc(N)c2c1-c1ccc(NC(=O)Nc2cc(C(F)(F)F)ccc2F)cc1` [Example 32, N-[4-(4-amino-6-{[(2-methoxyethyl)amino]methyl}pyrrolo[2,1-f][1,2,4]triazin-5-yl)phenyl]-N′-[2-fluoro-5-(trifluoromethyl)phenyl]urea] gave an inhibition at 0.1 µM of over 50%.

Turning to `CN(C)CCNCc1cn2ncnc(N)c2c1-c1ccc(NC(=O)Nc2cc(C(F)(F)F)ccc2F)cc1` [Example 37, N-{4-[4-amino-6-({[2-(dimethylamino)ethyl]amino}methyl)pyrrolo[2,1-f][1,2,4]triazin-5-yl]phenyl}-N′-[2-fluoro-5-(trifluoromethyl)phenyl]urea], the inhibition at 0.1 µM is under 50% and the inhibition at 1 µM was over 50%.

Regarding `Nc1ncnn2cc(CNCCC(F)(F)F)c(-c3ccc(NC(=O)Nc4cc(C(F)(F)F)ccc4F)cc3)c12` [Example 39, N-[4-(4-amino-6-{[(3,3,3-trifluoropropyl)amino]methyl}pyrrolo[2,1-f][1,2,4]triazin-5-yl)phenyl]-N′-[2-fluoro-5-(trifluoromethyl)phenyl]urea], the inhibition at 0.1 µM is under 50% and the inhibition at 1 µM is over 50%.

Turning to `COCCN1CCN(Cc2cn3ncnc(N)c3c2-c2ccc(NC(=O)Nc3cc(C(F)(F)F)ccc3F)cc2)CC1` [Example 41, N-[4-(4-amino-6-{[4-(2-methoxyethyl)piperazin-1-yl]methyl}pyrrolo[2,1-f][1,2,4]triazin-5-yl)phenyl]-N′-[2-fluoro-5-(trifluoromethyl)phenyl]urea], the inhibition at 0.1 µM is under 50% and the inhibition at 1 µM was over 50%.

`Nc1ncnn2cc(CNc3cccnc3)c(-c3ccc(NC(=O)Nc4cc(C(F)(F)F)ccc4F)cc3)c12` [Example 47, N-(4-{4-amino-6-[(pyridin-3-ylamino)methyl]pyrrolo[2,1-f][1,2,4]triazin-5-yl}phenyl)-N′-[2-fluoro-5-(trifluoromethyl)phenyl]urea]: the inhibition at 0.1 µM is under 50% and the inhibition at 1 µM is over 50%.

As for `CCOC(=O)c1cn2ncnc(N)c2c1-c1ccc(NC(=O)Nc2cc(C(C)(C)C)nn2C)cc1` [Example 49, ethyl 4-amino-5-[4-({[(3-tert-butyl-1-methyl-1H-pyrazol-5-yl)amino]carbonyl}amino)phenyl]pyrrolo[2,1-f][1,2,4]triazine-6-carboxylate], the inhibition at 0.1 µM was over 50%.

In the case of `Nc1ncnn2cc(C(=O)NCCCN3CCCC3)c(-c3ccc(NC(=O)Nc4cc(C(F)(F)F)ccc4F)cc3)c12` [Example 62, 4-amino-5-{4-[({[2-fluoro-5-(trifluoromethyl)phenyl]amino}carbonyl)amino]phenyl}-N-(3-pyrrolidin-1-ylpropyl)pyrrolo[2,1-f][1,2,4]triazine-6-carboxamide], the inhibition at 0.1 µM was under 50%, the inhibition at 1 µM was under 50% and the inhibition at 10 µM was over 50%.

`Nc1ncnn2cc(CCCN3CCOCC3)c(-c3ccc(NC(=O)Nc4cc(C(F)(F)F)ccc4F)cc3)c12` [Example 66, N-{4-[4-amino-6-(3-morpholin-4-ylpropyl)pyrrolo[2,1-f][1,2,4]triazin-5-yl]phenyl}-N′-[2-fluoro-5-(trifluoromethyl)phenyl]urea] registered an inhibition at 0.1 µM of under 50% and an inhibition at 1 µM of over 50%.

Compound `CC(C)(C)NC(=O)c1cn2ncnc(N)c2c1-c1ccc(NC(=O)Nc2cc(C(F)(F)F)ccc2F)cc1` [Example 75, 4-amino-N-(tert-butyl)-5-{4-[({[2-fluoro-5-(trifluoromethyl)phenyl]amino}carbonyl)amino]phenyl}pyrrolo[2,1-f][1,2,4]triazine-6-carboxamide] showed an inhibition at 0.1 µM of under 50% and an inhibition at 1 µM of over 50%.

For the compound `Cc1cn2ncnc(N)c2c1-c1ccc(NC(=O)Nc2cc(C(F)(F)F)ccc2F)cc1` [Example 85, N-[4-(4-amino-6-methylpyrrolo[2,1-f][1,2,4]triazin-5-yl)phenyl]-N′-[2-fluoro-5-(trifluoromethyl)phenyl]urea], the inhibition at 0.1 µM is under 50% and the inhibition at 1 µM is over 50%.
